pIC50: −log10 of the molar value.
Key:
Type in all cases: biochemical
Details in all cases: isolated kinase, 33P-ATP
IRAK4 = biological target: T1, IRAK4 (Homo sapiens, UniProt Q9NWZ3); assay: RBC HotSpot Kinase Assay, IRAK4; design: purchased Reaction Biology (RBC), HotSpot kinase assay
T1 sequence (Q9NWZ3 1-460): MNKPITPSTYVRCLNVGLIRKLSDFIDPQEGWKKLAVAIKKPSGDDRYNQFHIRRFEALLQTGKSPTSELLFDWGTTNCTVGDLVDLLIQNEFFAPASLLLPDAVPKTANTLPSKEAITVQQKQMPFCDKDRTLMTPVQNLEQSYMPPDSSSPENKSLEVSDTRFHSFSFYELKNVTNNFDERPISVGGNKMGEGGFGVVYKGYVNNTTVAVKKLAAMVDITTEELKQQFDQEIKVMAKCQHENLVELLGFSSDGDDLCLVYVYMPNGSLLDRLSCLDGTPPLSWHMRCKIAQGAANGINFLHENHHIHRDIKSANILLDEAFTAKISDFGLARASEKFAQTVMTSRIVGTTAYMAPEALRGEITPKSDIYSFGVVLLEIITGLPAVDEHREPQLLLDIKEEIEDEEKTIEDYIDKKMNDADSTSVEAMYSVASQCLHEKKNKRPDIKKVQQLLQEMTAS
Source text: (§1) This assay uses the isolated kinase enzyme. This assay is very useful for determining competition of the inhibitor for ATP and/or substrates and for measuring the kinetics of enzyme inhibition. […] Unlike kinase binding assays that measure competition for ATP, the HotSpot Kinase Assay is a functional assay that measures catalytic activity; as such it measures relative functional potency regardless of the mechanism of enzyme inhibition. This assay uses the form of the various enzymes that are easiest to express, which may not necessarily be the form of the enzyme that exist in the cell. (Sometimes the carboxy terminus has been truncated to aid in expression, or, if it is a receptor kinase, the enzyme itself is isolated from the other parts of the receptor that are involved in regulating kinase activity.)
(§2) The reagent used was as follows: Base Reaction buffer; 20 mM Hepes (pH 7.5), 10 mM MgCl2, 1 mM EGTA, 0.01% Brij35, 0.02 mg/ml BSA, 0.1 mM Na3VO4, 2 mM DTT, 1% DMSO. Required cofactors were added individually to each kinase reaction.
(§3) The reaction procedure was as follows: • 1) Substrates were prepared in freshly prepared Reaction Buffer. • 2) Any required cofactors were delivered to the substrate solution above. • 3) Kinase was delivered into the substrate solution and gently mixed. • 4) Compounds were delivered in 100% DMSO into the kinase reaction mixture by Acoustic technology (Echo550; nanoliter range), followed by incubation for 20 min at room temp. • 5)^33P-ATP was delivered into the reaction mixture to initiate the reaction. • 6) The mixture was incubated for 2 hours at room temperature. • 7) Kinase activity was detected by P81 filter-binding method.

IRAK1 = biological target: T2, IRAK1 (Homo sapiens, UniProt P51617); assay: RBC HotSpot Kinase Assay, IRAK1
T2 construct: purchased Reaction Biology (RBC), HotSpot kinase assay
T2 sequence (P51617 whole entry): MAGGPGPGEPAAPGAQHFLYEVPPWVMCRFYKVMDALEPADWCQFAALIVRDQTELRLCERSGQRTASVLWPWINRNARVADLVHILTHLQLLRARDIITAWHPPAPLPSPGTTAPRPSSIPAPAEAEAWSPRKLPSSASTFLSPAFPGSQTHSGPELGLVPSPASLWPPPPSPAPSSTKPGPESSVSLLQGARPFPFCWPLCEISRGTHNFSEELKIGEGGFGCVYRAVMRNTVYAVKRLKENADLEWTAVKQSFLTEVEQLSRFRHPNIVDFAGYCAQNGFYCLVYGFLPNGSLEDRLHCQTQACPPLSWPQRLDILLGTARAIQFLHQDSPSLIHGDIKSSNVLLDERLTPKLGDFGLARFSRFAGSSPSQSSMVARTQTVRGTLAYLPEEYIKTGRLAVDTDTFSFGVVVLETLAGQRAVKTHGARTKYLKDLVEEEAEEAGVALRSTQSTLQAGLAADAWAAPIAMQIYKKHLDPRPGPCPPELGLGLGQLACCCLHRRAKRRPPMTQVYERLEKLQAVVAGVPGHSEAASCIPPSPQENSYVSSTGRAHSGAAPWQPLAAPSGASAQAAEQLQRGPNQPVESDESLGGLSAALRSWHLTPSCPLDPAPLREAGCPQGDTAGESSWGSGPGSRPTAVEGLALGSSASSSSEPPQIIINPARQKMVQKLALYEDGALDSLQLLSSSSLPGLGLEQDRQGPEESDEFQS
Source text: as §1, §2, §3

FLT3 = biological target: T3, FLT3 (Homo sapiens, UniProt P36888); assay: RBC HotSpot Kinase Assay, FLT3; design: purchased Reaction Biology (RBC), HotSpot kinase assay
T3 sequence (P36888 27-993): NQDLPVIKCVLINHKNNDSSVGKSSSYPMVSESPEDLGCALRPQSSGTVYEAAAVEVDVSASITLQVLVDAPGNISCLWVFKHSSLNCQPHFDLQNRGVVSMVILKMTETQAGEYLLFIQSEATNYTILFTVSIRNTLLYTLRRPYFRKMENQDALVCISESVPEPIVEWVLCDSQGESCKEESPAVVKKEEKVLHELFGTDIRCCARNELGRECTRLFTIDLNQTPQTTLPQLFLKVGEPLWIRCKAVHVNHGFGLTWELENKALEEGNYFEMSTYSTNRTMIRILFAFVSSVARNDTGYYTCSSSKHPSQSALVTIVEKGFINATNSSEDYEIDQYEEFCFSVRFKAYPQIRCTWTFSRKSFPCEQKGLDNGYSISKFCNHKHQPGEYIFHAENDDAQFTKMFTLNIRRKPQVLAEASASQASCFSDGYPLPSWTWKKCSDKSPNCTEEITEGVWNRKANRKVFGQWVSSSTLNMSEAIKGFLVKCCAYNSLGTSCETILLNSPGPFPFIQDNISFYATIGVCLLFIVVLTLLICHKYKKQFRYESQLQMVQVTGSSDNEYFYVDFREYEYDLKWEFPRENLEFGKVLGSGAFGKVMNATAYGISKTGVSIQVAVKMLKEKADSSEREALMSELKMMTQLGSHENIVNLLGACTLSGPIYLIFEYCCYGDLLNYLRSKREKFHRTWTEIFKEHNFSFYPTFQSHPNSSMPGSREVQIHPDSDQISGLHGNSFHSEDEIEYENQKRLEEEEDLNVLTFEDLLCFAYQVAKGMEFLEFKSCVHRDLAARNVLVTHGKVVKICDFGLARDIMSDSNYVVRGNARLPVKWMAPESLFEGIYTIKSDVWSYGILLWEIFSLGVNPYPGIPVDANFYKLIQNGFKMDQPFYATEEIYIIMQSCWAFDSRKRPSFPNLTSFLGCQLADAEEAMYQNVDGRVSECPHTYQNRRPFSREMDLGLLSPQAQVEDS
Source text: as §1, §2, §3

Row | pIC50 (IRAK4) | pIC50 (IRAK1) | pIC50 (FLT3) | SMILES
1 | 7.96 | 6.56 | > 9.30 | FC(F)(F)COc1cn2c(-c3cccc(N[C@@H]4CCCNC4)n3)cnc2cn1 [Compound 37, (R)-N-(piperidin-3-yl)-6-(6-(2,2,2-trifluoroethoxy)imidazo[1,2-a]pyrazin-3-yl)pyridin-2-amine]
2 | 7.07 | 5.15 | > 9.30 | O=C1CC2(COC2)CN1c1cn2c(-c3cccc(N[C@H]4CNC[C@@H]4F)n3)cnc2cn1 [compound 62, 6-(3-(6-(((3S,4S)-4-fluoropyrrolidin-3-yl)amino)pyridin-2-yl)imidazo[1,2-a]pyrazin-6-yl)-2-oxa-6-azaspiro[3.4]octan-7-one]
3 | 8.70 | 6.35 | 9.05 | CC1(c2cn3c(-c4cccc(N[C@H]5CNC[C@@H]5C(F)(F)F)n4)cnc3cn2)CC1 [Compound 4, 6-(6-(1-methylcyclopropyl)imidazo[1,2-a]pyrazin-3-yl)-N-((3R,4S)-4-(trifluoromethyl)pyrrolidin-3-yl)pyridin-2-amine]
4 | 5.99 | 5.48 | 9.00 | C[C@H]1C[C@@H](Nc2cccc(-c3cnc4cnc(C5(C)CC5)cn34)n2)CCN1 [Compound 7, 6-(6-(1-methylcyclopropyl)imidazo[1,2-a]pyrazin-3-yl)-N-((2S,4S)-2-methylpiperidin-4-yl)pyridin-2-amine]
5 | 7.92 | 5.90 | 9.22 | FC(F)n1cc(-c2cn3c(-c4cccc(N[C@H]5CNC[C@@H]5F)n4)cnc3cn2)cn1 [Compound 53, 6-(6-(1-(difluoromethyl)-1H-pyrazol-4-yl)imidazo[1,2-a]pyrazin-3-yl)-N-((3S,4S)-4-fluoropyrrolidin-3-yl)pyridin-2-amine]
6 | 7.85 | 5.32 | > 9.30 | CC1(C)CCNCC1Nc1cccc(-c2cnc3cnccn23)n1 (stereo not drawn) [Compound 74, N-(4,4-dimethylpiperidin-3-yl)-6-(imidazo[1,2-a]pyrazin-3-yl)pyridin-2-amine]
7 | 8.70 | 6.82 | > 9.30 | FC(F)c1cn2c(-c3cccc(N[C@H]4CNCC45CC5)n3)cnc2cn1 [Compound 20, (R)-N-(6-(6-(difluoromethyl)imidazo[1,2-a]pyrazin-3-yl)pyridin-2-yl)-5-azaspiro[2.4]heptan-7-amine]
8 | 9.15 | 6.99 | > 9.30 | FC(F)c1cn2c(-c3cccc(N[C@H]4CNCCC4(F)F)n3)cnc2cn1 [Compound 26, (S)-6-(6-(difluoromethyl)imidazo[1,2-a]pyrazin-3-yl)-N-(4,4-difluoropiperidin-3-yl)pyridin-2-amine]
9 | 6.17 | 6.32 | 9.00 | C[C@H]1C[C@@H](Nc2cccc(-c3cnc4cnc(C(F)F)cn34)n2)CCN1 [Compound 22, 6-(6-(difluoromethyl)imidazo[1,2-a]pyrazin-3-yl)-N-((2S,4S)-2-methylpiperidin-4-yl)pyridin-2-amine]
10 | 7.85 | 5.38 | > 9.30 | CC1(C)CNCC1Nc1cccc(-c2cnc3cnccn23)n1 (stereo not drawn) [Compound 72]
11 | 6.62 | 5.46 | > 9.30 | CC1(C)CC(=O)N(c2cn3c(-c4cccc(N[C@H]5CNC[C@@H]5F)n4)cnc3cn2)C1 [Compound 63, 1-(3-(6-(((3S,4S)-4-fluoropyrrolidin-3-yl)amino)pyridin-2-yl)imidazo[1,2-a]pyrazin-6-yl)-4,4-dimethylpyrrolidin-2-one]
12 | 7.92 | 5.70 | > 9.30 | c1cc(N[C@@H]2CCCNC2)nc(-c2cnc3cnc(-c4cnn(C5CC5)c4)cn23)c1 [Compound 45, (R)-6-(6-(1-cyclopropyl-1H-pyrazol-4-yl)imidazo[1,2-a]pyrazin-3-yl)-N-(piperidin-3-yl)pyridin-2-amine]
13 | 8.70 | 6.63 | > 9.30 | CC1(C)CCNCC1Nc1cccc(-c2cnc3cnc(C(F)F)cn23)n1 (stereo not drawn) [Compound 24, 6-(6-(difluoromethyl)imidazo[1,2-a]pyrazin-3-yl)-N-(4,4-dimethylpiperidin-3-yl)pyridin-2-amine]
14 | 8.70 | 6.78 | > 9.30 | CCOc1cn2c(-c3cccc(N[C@H]4CNC[C@@H]4F)n3)cnc2cn1 [compound 57, 6-(6-ethoxyimidazo[1,2-a]pyrazin-3-yl)-N-((3S,4S)-4-fluoropyrrolidin-3-yl)pyridin-2-amine]
15 | 7.82 | 5.69 | > 9.30 | c1cc(N[C@@H]2CCCNC2)nc(-c2cnc3cnccn23)c1 [Compound 69, (R)-6-(imidazo[1,2-a]pyrazin-3-yl)-N-(piperidin-3-yl)pyridin-2-amine]
16 | 9.05 | 6.94 | 9.10 | CC(C)(O)c1cn2c(-c3cccc(N[C@@H]4CCNC4)n3)cnc2cn1 [Compound 27, (R)-2-(3-(6-(pyrrolidin-3-ylamino)pyridin-2-yl)imidazo[1,2-a]pyrazin-6-yl)propan-2-ol]
17 | 8.40 | 6.08 | 9.15 | COc1cn2c(-c3cccc(N[C@H]4CNC[C@@H]4F)n3)cnc2cn1 [Compound 56, N-((3S,4S)-4-fluoropyrrolidin-3-yl)-6-(6-methoxyimidazo[1,2-a]pyrazin-3-yl)pyridin-2-amine]
18 | > 9.30 | 6.52 | > 9.30 | F[C@H]1CNC[C@@H]1Nc1cccc(-c2cnc3cnc(-c4cnn5ccccc45)cn23)n1 [Compound 55, N-((3S,4S)-4-fluoropyrrolidin-3-yl)-6-(6-(pyrazolo[1,5-a]pyridin-3-yl)imidazo[1,2-a]pyrazin-3-yl)pyridin-2-amine]
19 | 6.47 | 6.38 | 9.22 | C[C@H]1C[C@@H](Nc2cccc(-c3cnc4cnc(OCC(F)(F)F)cn34)n2)CCN1 [Compound 42, N-((2S,4S)-2-methylpiperidin-4-yl)-6-(6-(2,2,2-trifluoroethoxy)imidazo[1,2-a]pyrazin-3-yl)pyridin-2-amine]
20 | 8.52 | 6.41 | > 9.30 | CC(C)(O)c1cn2c(-c3cccc(N[C@H]4CNC[C@@H](F)C4)n3)cnc2cn1 [Compound 32, 2-(3-(6-(((3R,5S)-5-fluoropiperidin-3-yl)amino)pyridin-2-yl)imidazo[1,2-a]pyrazin-6-yl)propan-2-ol]
21 | 6.96 | 6.85 | > 9.30 | F[C@H]1CNCC[C@@H]1Nc1cccc(-c2cnc3cnc(OCC(F)(F)F)cn23)n1 [Compound 41, N-((3S,4S)-3-fluoropiperidin-4-yl)-6-(6-(2,2,2-trifluoroethoxy)imidazo[1,2-a]pyrazin-3-yl)pyridin-2-amine]

— patent publication US12612410B2 (CHILDREN'S HOSPITAL MEDICAL CENTER, priority 2020, dated 2026)
